From patent US20230357722A1, “METHODS FOR IDENTIFYING MODULATORS OF NATURAL KILLER CELL INTERACTIONS” (The Johns Hopkins University, priority 2020, published 2023)

What was measured:
Assay type in all cases: cell-based, mouse
[1] = test system: tumor-exposed NK cell-MMTV-PyMT tumor cluster co-culture; experiment: teNK cell-MMTV-PyMT tumor cluster co-culture colony formation assay; settings: teNK cells pretreated with DNMT inhibitor at 1 μM for 24 hours before co-culture; FIG. 5C
Description: The capacity of candidate immunotherapies to reverse the effect of teNK cells on colony formation was investigated. Anti-PD-1 therapy has been reported to restore the function of anergic NK cells (Hsu J, et al. J Clin Invest. 2018; 128(10):4654-68). […] Targeted receptors were next identified in the RNA expression analysis, specifically TIGIT and KLRG1. TIGIT is an emerging immune checkpoint on NK cells and T cells and anti-TIGIT therapies are in clinical trials (Zhang Q, et al. Blockade of the checkpoint receptor TIGIT prevents NK cell exhaustion and elicits potent anti-tumor immunity. Nat Immunol. 2018; 19(7):723-32). KLRG1, a marker of senescent NK cells and T cells and a recently reported inhibitor of NK cell function (Muller-Durovic B, et al. J Immunol. 2016; 197(7):2891-9), was highly expressed by teNK cells. […] The broad gene expression differences between hNK and teNK cells provided the motivation to identify epigenetic regulators of NK cell state. […] Experiments were then carried out seeking to validate the functional significance of these findings in the co-culture models. […] It was assessed whether the combination of FDA approved DNA methyltransferase inhibitors and anti-TIGIT or anti-KLRG1 would prevent colonies from being formed in co-culture. […]

KLRG1 = experiment: RT-qPCR of KLRG1 in teNK cells treated with DNMT inhibitors; settings: teNK cells pretreated with DNMT inhibitor; FIG. 10F
Description: (§1) Natural killer cell isolation. Primary splenocytes were isolated by mechanical dissociation from spleens of wild-type FVB/n, MMTV-PyMT, or C3(1)-Tag mice, or from the tumors of MMTV-PyMT mice. NK cells isolated from WT FVB/n mice are defined as healthy NK (hNK) cells and those isolated from tumor bearing mice are defined as tumor-exposed NK (teNK) cells. NK cells isolated from MMTV-PyMT tumors are defined as tumor-infiltrating NK cells. The NK cells were purified from isolated splenocytes using EasySep Mouse NK Cell Isolation Kit per the manufacturer's protocol (#19855; Stemcell Technologies). The isolated cells were then positively selected by FACS by gating on CD49b+/CD3− cells and CD45+/CD49b+/CD3− for NK cells isolated from tumors. NK cells were cultured in media at 37° C. containing 200 U/ml recombinant mouse IL-2 (#402-ML-100, R&D Systems), 5 ng/ml recombinant mouse IL-15 (#447-ML-010, R&D Systems) or 5 ng/ml recombinant mouse IL-I5:IL-15R complex (#14-8152-62, Thermo Fisher) for 16 h before use in assays. […]
(§2) RNA Extraction and Quantitative PCR. […] Quantitative PCR was conducted using the SsoAdvanced Universal SYBR Green Supermix (BioRad #1725271) with 500 pg cDNA and 500 nM primers per reaction. […] Target gene expression values were normalized to GAPDH expression and fold change was calculated as 2-ΔΔCt. […]

TIGIT = experiment: RT-qPCR of TIGIT in teNK cells treated with DNMT inhibitors; settings: teNK cells pretreated with DNMT inhibitor; FIG. 10F
Description: as §1, §2

Nc1ncn([C@@H]2O[C@H](CO)[C@@H](O)[C@H]2O)c(=O)n1 [azacitidine]
colony formation (normalized colony count) [1]: neutralized the effect of teNK cells in co-culture | gene expression of KLRG1 by qPCR (KLRG1): reduced gene expression of TIGIT and KLRG1 | gene expression of TIGIT by qPCR (TIGIT): reduced gene expression of TIGIT
